Data: patent US20230287416A1, “COMBINATORY TREATMENT OF SMA WITH SARNA AND MRNA MODULATORS” (RACTIGEN THERAPEUTICS, priority 2020, published 2023)

Legend:
Type in all cases: cell-based, human
[1] = system: SMN2 mRNA; experiment: RT-qPCR of SMN2FL and SMN2 Δ7 mRNA in GM00232 cells; settings: GM00232, 72 h
[2] = system: SMN2 mRNA; experiment: Semi-quantitative RT-PCR (DdeI digestion) of SMN2FL and SMN2 Δ7 in GM03813 cells; settings: GM03813, 72 h
Protocol: Seventy-two hours later, total cellular RNA was isolated from the treated cells and reverse transcribed into cDNA. SMN2 mRNA expression was assessed with RT-qPCR using primer pairs specific for SMN2FL or SMN2 Δ7. SMN2 mRNA expression was also assessed by semi-quantitative RT-PCR using a primer pair that amplifies both SMN2FL and SMN2 Δ7 followed by DdeI digestion (PCR/digestion). […] After digestion, both bands were reduced by 115 bp, resulting in two products: 392 bp (SMN2FL) and 338 bp (SMN2 Δ7) as shown on the gel of FIG. 3D. FIG. 3A-3D show dose-dependent changes in SMN2FL and SMNΔ7 mRNA as assessed by RT-qPCR and PCR/digestion respectively. FIG. 3E-3G are graphic plots of data from quantitating the intensity of bands in FIG. 3D.
(§1) SMA patient derived fibroblasts were obtained from Coriell Institute (Camden, N.J., USA), including GM00232 (SMA type I with 2 copies of SMN2 gene) and GM03813 (SMA type II with 3 copies of SMN2 gene). These cells were cultured at 5% C02 and 37° C. in modified MEM medium (Gibco, Thermo Fisher Scientific, Carlsbad, Calif.) supplemented with 15% bovine calf serum (Sigma-Aldrich), 1% NEAA (Gibco) and 1% penicillin/streptomycin (Gibco). To transfect oligonucleotides including saRNAs, siRNA and ASO, cells were seeded into 6-well plates at a density of 1×10^5 cells/well and were transfected with oligonucleotides at different concentrations using RNAiMax (Invitrogen, Carlsbad, Calif.) according to the reverse transfection protocol provided by the manufacturer for 72 hours (unless otherwise specified). For Risdiplam treatment of cells, Risdiplam (HY-109101, MedChem Express Company, Monmouth Junction, N.J., USA) dissolved in DMSO was added directly to cells at desired concentration for 72 hours unless specified otherwise.
To amplify both SMN2FL and SMN2 Δ7 in one reaction, cDNA was amplified by semi-quantitative RT-PCR using primers that spans exon 7 of SMN2 (Table 5) (FIG. 2). The PCR reaction conditions were: 94° C. for 2 minutes (1 cycle), 98° C. for 10 seconds, 60° C. for 15 seconds, 72° C. for 32 seconds, cycled for 30 time with a final 5 minutes extension at 72° C. To further differentiate SMN1 mRNA from SMN2, the resultant PCR products of SMN were digested by DdeI restriction enzyme (R0175L, NEB) and then separated by 2% agarose gel. Due to a nucleotide variant on […] of SMN2, a DdeI recognition site exists in PCR products amplified from SMN2 gene but not from SMN1 gene, DdeI digestion releases a 115 bp fragment from both SMN2FL and SMN2 Δ7, resulting […]: 507 (SMN1FL), 338 (SMN2 Δ7), 392 (SMN2FL) and 115 bp (FIG. 2). TBP gene was also amplified as a RNA loading control. The DdeI digestion reaction conditions were: 37° C. for 60 minutes and 65° C. for 20 minutes, 1cycle.

[3] = system: SMN2 mRNA; experiment: Semi-quantitative RT-PCR/DdeI digestion of SMN2FL and SMN2 Δ7 in GM00232 cells; settings: GM00232, 72 h
Protocol: (§2) To determine whether the combination of saRNA (DS06-0004) and ASO-10-27 has an enhanced effect on SMN2FL induction in type I SMA cells, GM00232 cells were transfected with DS06-0004 and ASO-10-27 alone or in combination at different concentrations for 72 hours. SMN2 expression was assessed in the treated cells by RT-qPCR (FIGS. 4A and 4D) and PCR/digestion (FIGS. 4B, 4C and 4E).
as §1, with “For Risdiplam treatment of cells, Risdiplam (HY-109101, MedChem Express Company, Monmouth Junction, N.J., USA) dissolved in DMSO was added directly to cells at desired concentration for 72 hours unless specified otherwise.” left out
To amplify both SMN2FL and SMN2 Δ7 in one reaction, cDNA was amplified by semi-quantitative RT-PCR using primers that spans exon 7 of SMN2 (Table 5) (FIG. 2). […]

[4] = system: SMN2 mRNA; experiment: RT-qPCR of SMN2FL and SMN2 Δ7 mRNA in GM00232 cells; settings: GM00232, 72 h; remark: listed apart in the source
Protocol: as §2
“GM00232 cells” refers to fibroblast cells provided by Coriell Institute for Medical Research. This cell line is described as SPINAL MUSCULAR ATROPHY I; SMA1. The donor subject has 2 copies of the SMN2 gene (data from several sources including Stabley et al. 2015, PMID 26247043) and is homozygous for deletion of exons 7 and 8 of the SMN1 gene. The relevant gene is SMN1; the chromosomal location is 5q12.2-q13.3, the allelic variant is described as exons 7 and 8 deleted; SPINAL MUSCULAR ATROPHY, TYPE I; and the identified mutation: is EX7-8DEL. The phenotype data derived from a fibroblast from skin (arm) of the following subject characterized as: Progressive muscular atrophy; absent deep tendon reflexes; abnormal EMG; donor subject has 2 copies of the SMN2 gene (data from several sources including Stabley et al. 2015, PMID 26247043) and is homozygous for deletion of exons 7 and 8 of the SMN1 gene.
as §1
For RNA isolation from cultured cells, total cellular RNA was isolated from treated cells using an RNeasy Plus Mini kit (Qiagen, Hilden, Germany) according to its manual. To isolated RNA from animal tissues, tissues were harvested and stored at RNA later (AM7021, Thermo Fisher). Total RNA was then isolated using MagPure Total RNA Micro LQ kit (Magen, R6621, China) by auto-pure96 machine (ALLSHENG, China). The resultant RNA (1 μg) was reverse transcribed into cDNA by using a PrimeScript RT kit containing gDNA Eraser (Takara, Shlga, Japan). The resultant cDNA was amplified in an ABI 7500 Fast Real-time PCR System (Applied Biosystems; Foster City, Calif.) using SYBR Premix Ex Taq 11 (Takara, Shlga, Japan) reagents and primers which specifically amplified full-length (SMN2FL) or A7 SMN2 mRNA (SMN2 Δ7) (FIG. 1). The reaction conditions were: 95° C. for 3 seconds (1 cycle) and 60° C. for 30 seconds (40 cycles). Amplification of TBP gene served as an internal control.

[5] = PCR/digestion (Example 1, FIG. 3E)

Molecule: Cc1cn2nc(-c3cc(=O)n4cc(N5CCNC6(CC6)C5)ccc4n3)cc(C)c2n1 [Risdiplam]
- SMN2FL mRNA fold change ([1]; 50 nM (Example 6, FIG. 8A-8C)): 1.2 fold
- SMN2 Δ7 mRNA change ([1]; 50 nM, 250 nM and 1250 nM (Example 6)): decrease
- SMN2FL mRNA fold change ([1]; 250 nM (Example 6)): 1.8 fold
- SMN2FL mRNA fold change ([1]; 1250 nM (Example 6)): 1.9 fold
- SMN2FL mRNA fold change ([2]; 1250 nM, PCR/DdeI digestion (Example 8, FIG. 10D-10F)): 2.1 fold
- SMN2FL mRNA fold change ([3]; 1250 nM, PCR/DdeI digestion (Example 6, FIG. 8D-8F)): 2.3 fold

Molecule: DS06-0004: saRNA targeting SMN2 promoter at -281; SEQ ID NO: 476/477 (Table 8: SEQ ID NO: 131/288) (chain 1 AGACGAGGCCUAAGCAACATT; chain 2 UGUUGCUUAGGCCUCGUCUTT; chemistry not given here)
- SMN2FL mRNA fold change ([1]; 1 nM (Example 6)): 1.8 fold
- SMN2 Δ7 mRNA fold change ([1]; 1 nM (Example 6)): 1.6 fold
- SMN2FL mRNA fold change ([1]; 5 nM (Example 6)): 2.1 fold
- SMN2 Δ7 mRNA fold change ([1]; 5 nM (Example 6)): 1.6 fold
- SMN2 Δ7 mRNA fold change ([1]; 25 nM (Example 2)): 2.1 fold
- SMN2FL mRNA fold change ([1]; 25 nM (Example 6)): 2.0 fold
- SMN2 Δ7 mRNA fold change ([1]; 25 nM (Example 6)): 1.7 fold
- SMN2 Δ7 mRNA fold change ([4]; 1 nM (Example 2)): 1.5 fold
- SMN2FL mRNA fold change ([4]; 1 nM (Example 2, FIG. 4A)): 1.7 fold
- SMN2FL mRNA fold change ([4]; 5 nM (Example 2)): 2.4 fold
- SMN2 Δ7 mRNA fold change ([4]; 5 nM (Example 2)): 1.9 fold
- SMN2FL mRNA fold change ([4]; 25 nM (Example 2)): 2.4 fold

Molecule: Nusinersen [ASO-10-27]
- SMN2FL mRNA fold change ([4]; 1 nM (Example 2, FIG. 4A)): 1.3 fold
- SMN2 Δ7 mRNA change ([4]; 1 nM, 5 nM and 25 nM (Example 2)): decrease
- SMN2FL mRNA fold change ([4]; 5 nM (Example 2)): 1.8 fold
- SMN2FL mRNA fold change ([4]; 25 nM (Example 2)): 1.9 fold
- SMN2FL mRNA fold change ([2]; 25 nM, semi-quantitative RT-PCR/DdeI digestion (Example 4, FIG. 6B-6C)): 2.1 fold
- concentration at which expression of SMN2FL reached its peak [2, 5]: 10 nM
- concentration at which expression of SMNΔ7 almost approached the lowest value [2, 5]: 5 nM
- SMN2FL mRNA fold change ([2]; alone or in combination at 10 nM, semi-quantitative RT-PCR (Example 10, FIG. 12B-12C)): 1.4 fold
- SMN2FL mRNA fold change ([3]; 25 nM, PCR/DdeI digestion (Example 2, FIG. 4B-4C)): 2.3 fold
